Measurements reported in patent US12616759B2, “Uses of labeled HSP90 inhibitors” (Sloan-Kettering Institute for Cancer Research, priority 2011, dated 2026).

How the values were obtained:
[1] = tested on: AML cell lines; assay: apoptosis in AML cell lines, acridine orange/ethidium bromide; type: cell-based, human
Method: (§1) Apoptosis Assay: Cells were treated for 24, 48 or 72 h with vehicle (DMSO) or inhibitors as indicated. Following staining with Acridine Orange and Ethidium Bromide (1:1 mix of 100 µg/ml), cells were visualized with a fluorescent microscope (Zeiss Axiovert 40 CFL) and counted. Percentage of apoptotic cells was determined from 200-300 cells counted in each group. The percentage of apoptotic cells was calculated as: % Apoptotic cells=(total number of cells with apoptotic nuclei/total number of cells counted)×100.

[2] = tested on: FL5.12 mAKT-transfected cells; assay: apoptosis in mAKT-transfected FL5.12 cells; type: cell-based
Source text: FL5.12 was derived as an interleukin-3 (IL-3)-dependent cell line with a functional JAK/STAT pathway and it has characteristic features of an early lymphocytic progenitor. Both the parental cells and the transfected cells express moderate-levels of active AKT and STAT5, as evidenced by AKT phosphorylation on Ser473 and STAT5 phosphorylation on Tyr694, respectively. The level of p-STAT5 but not p-AKT is dependent on the presence of IL-3. Introduction of a constitutively activated, myristoylated form of AKT (mAKT) under the control of a doxycycline (DOX)-inducible promoter further allows for the regulation of p-AKT levels in these cells. All together, these cells are a good isogenic model to evaluate the dependence of HSP90 inhibitor apoptotic sensitivity on activated AKT and STAT5-pathways.
Cells: Kasumi-1, SKNO-1, MOLM-13, MO-91, HEL, HL-60, THP-1, MV4-11 were grown in RPMI media supplemented with 10 mM HEPES, 4.5 g/L glucose, 1.5 g/L sodium bicarbonate, 1 mM sodium pyruvate, 10% FBS, and 1% penicillin/streptomycin. The stable transfectants of FL5.12 were previously described (18-Karnauskas 2003). In brief, for the generation of FL5.mAKT the myristylated AKT was cloned in the doxycycline inducible vector pRevTRE (Clontech) (this clone is designated mAKT). As a control, cell were transfected with vector alone (this clone is designated Vector). For generation of FL5.mAkt.Bcl-xL, the human Bcl-xL cDNA was cloned into the EcoRI site of the pBabePuro vector, and transfected into FL5.mAkt3 as described (18) (this clone is designated mAKT.Bcl-xL). These lines were cultured as described previously using DME-HG media supplemented with 10 mM HEPES, 10% FBS media containing 1 mg/ml Geneticin (G418) (Sigma #G9516) and 1 or 2 ng/mL of IL-3 (RD Systems #403 ML).
as §1
Western blot: Cells were grown to 60-70% confluence and treated with inhibitor or vehicle for the indicated times. Protein lysates were prepared in 50 mM Tris pH 7.4, 150 mM NaCl and 1% NP-40 lysis buffer. Protein concentrations were measured using the BCA kit (Pierce) according to the manufacturer's instructions. Protein lysates (10-100 μg) were resolved by SDS-PAGE, transferred onto nitrocellulose membrane and incubated with the indicated primary antibodies. […]

[3] = tested on: MDA-MB-468 tumors; conditions: 75 mg/kg, reference 100; cited from earlier work
[4] = tested on: MDA-MB-468 cells; assay: MDA-MB-468 and other breast cancer cells in vitro: growth inhibition, client depletion, apoptosis

In the case of `CC(C)NCCCn1c(Sc2cc3c(cc2I)OCO3)nc2c(N)ncnc21` [PU-H71], the cells undergoing apoptosis ([1]; HEL, 72 h) is reported as 30%, the cells undergoing apoptosis ([1]; MOLM-13 and MO-91, 72 h) is reported as about 100% and the cells undergoing apoptosis ([1]; SKNO-1 and Kasumi-1, 72 h) is reported as 50-60%. For the same compound, the apoptotic cells ([2]; p-AKT increased by Dox) was 50%, the apoptotic cells ([2]; without Dox) was 35-40% and the anti-tumor effect [3] was “tumor regression and cures”. For the same compound, the “concentrations resulting in HSP90 inhibition (depletion of Raf-1, Akt)” value ([4]; MDA-MB-468, 24 h) was “above 0.1 μM”, the “concentration required for about 50% of cells undergoing apoptosis” value ([4]; MDA-MB-468, 48 h) was 0.5 µM and the “concentration required for about 100% of cells undergoing apoptosis” value ([4]; MDA-MB-468, 48 h) was “about 5 μM”. The cells undergoing apoptosis ([4]; MDA-MB-468, >2 μM, 48 h) was over 70%.
